Results published in patent US11236086B2, “Substituted pyrrolopyridines as inhibitors of activin receptor-like kinase” (BLUEPRINT MEDICINES CORPORATION, priority 2017, dated 2022).

molecular target: T1, ALK2R206H (mutant ALK2, N-terminally tagged with GST) (Homo sapiens, UniProt Q04771, R206H); experiment: ALK binding assay (LANTHASCREEN TR-FRET competitive binding, displacement of Kinase Tracer 178); details: read-out: Binding Assay (IC50 class)
T1 construct: purchased Carna Bioscience or ThermoFisher 09-148 or PV6232
T1 sequence (Q04771 21-509 R206H): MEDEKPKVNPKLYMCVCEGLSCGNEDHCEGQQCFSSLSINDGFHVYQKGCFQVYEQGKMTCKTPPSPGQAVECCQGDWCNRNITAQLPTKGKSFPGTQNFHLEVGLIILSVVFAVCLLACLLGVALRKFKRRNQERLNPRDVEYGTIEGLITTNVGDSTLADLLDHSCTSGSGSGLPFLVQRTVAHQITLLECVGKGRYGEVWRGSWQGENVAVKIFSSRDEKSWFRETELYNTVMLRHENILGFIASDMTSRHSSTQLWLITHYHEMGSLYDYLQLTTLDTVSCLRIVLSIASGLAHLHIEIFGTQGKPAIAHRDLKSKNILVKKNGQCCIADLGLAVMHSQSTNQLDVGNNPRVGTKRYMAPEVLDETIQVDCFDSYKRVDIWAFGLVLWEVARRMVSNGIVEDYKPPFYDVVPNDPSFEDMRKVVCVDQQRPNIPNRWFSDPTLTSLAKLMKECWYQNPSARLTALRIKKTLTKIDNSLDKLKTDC
Method: Example 10 ALK Binding Assays
Binding assays were conducted using the LANTHASCREEN® technology (ThermoFisher Scientific). LANTHASCREEN® is a competitive binding, displacement assay where the assumed steady state occupancy of the binding site is measured using a time-resolved, fluorescence energy transfer (TR-FRET) readout between a fluorescent tracer and Europium (Eu)-tagged antibody specific for the kinase or expression tag (e.g., GST) of interest. Displacement of the tracer by a compound of the disclosure reduces, and is directly proportional to, the TR-FRET between the tracer and the antibody. Tracer was used at a concentration equal to or near to its Kd for the kinase. The Eu-tagged antibody was typically used in excess to ensure sampling of all competent protein capable of binding the tracer.
For these assays, a mutant ALK2 was used that was N-terminally tagged with GST (ALK2R206H Carna Bioscience (09-148) or ALK2R206H ThermoFisher (PV6232)); a Eu-tagged anti-GST antibody (ThermoFisher) and Kinase Tracer 178 (ThermoFisher).
In all cases, the kinase (2-5 nM) was mixed with Eu-tagged antibody (4-10 nM) mix and tracer (50 nM) were incubated with test compound titrations prepared in 100% DMSO (1% DMSO final) for 30 minutes at room temperature. All reagents and compounds were dissolved in Kinase Buffer A (ThermoFisher) to achieve the final concentration. The plates were read on a PerkinElmer EnVision® multilabel plate reader or a BioTek Synergy Neo plate reader, and the assay signal was represented as a ratio of the TR-FRET emission (λex 330 nm, λ^em […] and λ^em 665 nm). This readout was normalized to 0% and 100% inhibited control wells, plotted against inhibitor concentration, and fitted to a 4-parameter log dose response curve.
The results of this assay are shown in Table 3 in the column labelled “Binding Assay” wherein “A” represents an IC50 of less than or equal to 10 nM; “B” represents an IC50 of greater than 10 nM and less than or equal to 50 nM; and “C” represents an IC50 of greater than 50 nM. Blank values in the table indicate that the particular compound was not tested in this assay.

Row | IC50 | Structure (SMILES)
1 | ≤ 10 nM | CC(C)N1CCC(c2ccc(-c3cc4c(N5CCN(C(=O)OC6COC6)CC5)ccnc4[nH]3)nc2)CC1 [Compound 469]
2 | ≤ 10 nM | CN(C)c1nc(-c2cc3c(N4CCN(C(=O)OC5COC5)CC4)ccnc3[nH]2)cn1C [Compound 310]
3 | ≤ 10 nM | Cc1nc(-c2cc3c(N4CCN(C(=O)OC5CCC5)CC4)ccnc3[nH]2)cn1C [Compound 139]
4 | ≤ 10 nM | Cn1cc(-c2cc3c(N4CCN(C(=O)O[C@H]5C[C@H](C#N)C5)CC4)ccnc3[nH]2)cn1 [Compound 202]
5 | ≤ 10 nM | Cn1cc(-c2cc3c(N4CCN(C(=O)OC5COC5)CC4)ccnc3[nH]2)cn1 [Compound 90]
6 | ≤ 10 nM | Cc1nn(C)cc1-c1cc2c(N3CCN(C(=O)[C@H]4CC[C@H](C#N)CC4)CC3)ccnc2[nH]1 [Compound 333]
7 | ≤ 10 nM | COc1ccc(-c2cc3c(N4CCN(C(=O)C5CC5)CC4)ccnc3[nH]2)cc1 [Compound 60]
8 | 10 to 50 nM | CCc1ccc(-c2cc3c(N4CCN(C(=O)C5CC5)CC4)ccnc3[nH]2)cc1 [Compound 52]
9 | ≤ 10 nM | Cn1cc(-c2[nH]c3nccc(N4CCN(C(=O)OC5CC5)CC4)c3c2C#N)cn1 [Compound 129]
10 | ≤ 10 nM | O=C(C1CC1)N1CCN(c2ccnc3[nH]c(-c4cnn(C5CCC5)c4)cc23)CC1 [Compound 128]
11 | ≤ 10 nM | Cc1nc(-c2cc3c(N4CCN(C(=O)O[C@@H](C)CF)CC4)ccnc3[nH]2)cs1 [Compound 189]
12 | ≤ 10 nM | Cn1cnc(-c2cc3c(N4CCN(C(=O)OC5COC5)CC4)ccnc3[nH]2)c1 [Compound 89]
13 | ≤ 10 nM | CC(C)(O)c1cnc(-c2cc3c(N4CCN(C(=O)OC5COC5)CC4)ccnc3[nH]2)s1 [Compound 377]
14 | ≤ 10 nM | Cn1cnc(-c2[nH]c3nccc(N4CCN(C(=O)OC5CC(F)(F)C5)CC4)c3c2C#N)c1 [Compound 370]
15 | ≤ 10 nM | O=C(C1CC1)N1CCN(c2ccnc3[nH]c(-c4cnn(Cc5ccccc5)c4)cc23)CC1 [Compound 315]
16 | ≤ 10 nM | O=C(C1CC1)N1CCN(c2ccnc3[nH]c(-c4ccc(N5CCN(C6COC6)CC5)cc4)cc23)CC1 [Compound 452]
17 | ≤ 10 nM | CCCOC(=O)N1CCN(c2ccnc3[nH]c(-c4cnn(C)c4)cc23)CC1 [Compound 40]
18 | ≤ 10 nM | CCCC(C)C(=O)N1CCN(c2ccnc3[nH]c(-c4cnn(C)c4)cc23)CC1 (stereo not drawn) [Compound 82]

molecular target: T2, human ALK2 R206H (Homo sapiens, UniProt Q04771, R206H); experiment: Cell-based ALK2-R206H cell activity assay (Smad1-Ser463/Ser465 phosphorylation by AlphaLISA in HEK293-ALK2-R206H cells); details: phospho-Smad1 AlphaLISA, read-out: Cell Line (Cell Assay, IC50 class)
T2 construct: expressed in transfected cells; host or cells: HEK293 (ATCC CRL1573), lentivirus transduction, blasticidin selection
T2 sequence (Q04771 21-509 R206H): T1 sequence (Q04771 21-509 R206H)
Method: Example 11. Cell-Based ALK2-R206H Cell Activity Assay
A HEK293 (ATCC, Cat No. CRL1573) based stable cell line expressing human ALK2 R206H cDNA (synthesized by GeneScript, Piscataway, N.J.) and a FLAG tag at the C-terminus was generated by lentivirus transduction and subsequent blasticidin (Life Technologies, Cat No. A1113902) selection at 10 μg/ml for >2 wks. This cell line was named HEK293-ALK2-R206H.
B. Measurement of Smad1-Ser463/Ser465 Phosphorylation by AlphaLISA
HEK293-ALK2-R206H cells were grown, harvested, and then resuspended in serum-free, phenol red-free DMEM high glucose media (Life Technologies, Cat No. 31053). The media also contained 50 units/ml penicillin and 50 μg/ml streptomycin (Life Technologies, Cat. No. 15070-063). HEK293-ALK2-R206H cells were then plated in white opaque 384-wells microplates (2×10^4/well) (OptiPlate-384, PerkinElmer, Waltham, Mass., Cat No. 6007299) overnight (>16h) at 37° C. 5% CO2 for use in the assay.
Test compounds were first diluted to 4 mM or 0.4 mM and then serially diluted 3-fold into 10 different concentrations using DMSO. Each concentration of compound was further diluted 40-fold with phenol red-free DMEM (Life Technologies, Cat No. 31053). 2 μl of the diluted compounds were then dispensed into the HEK293-ALK2-R206H cell-containing wells of the microplates in duplicates. In this way, each compound was tested in 10 doses (3-fold serial dilution with the top concentration being 10 μM or 1 μM). Liquid handling was achieved using a Bravo Automated Liquid Handling Platform (Agilent Technologies). DMSO without compound was used as a negative control. The positive control was 1 μM LDN193189, a known bone morphogenetic protein (BMP inhibitor).
After 2-3 hours of incubation with test compound or control, the cells were lysed and signal was developed using ALPHASCREEN® SUREFIRE® SMAD1 (p-Ser463/465) cellular kinase assay kit (PerkinElmer, Cat No. TGRSM1S10K) following the manufacturer's recommended protocol. The microplates were read using Perkin Elmer ENVISION® plate reader (emission […]). The signal reflected the level of phospho-Ser/463/465-Smad1 in the lysate. The raw data were plotted using the DMSO negative and LDN193189 positive controls as the 0% and 100% inhibition, respectively. The 10-point dose response curve was used to calculate the IC50 values.
The results of this assay are shown in Table 3 in the column labeled “Cell Assay” wherein “A” represents an IC50 of less than or equal to 100 nM; “B” an IC50 of greater than 100 nM and less than or equal to 500 nM; “C” an IC50 of greater than 500 nM. Blank values in the table indicate that the particular compound was not tested in this assay.

Row | IC50 | Structure (SMILES)
19 | ≤ 100 nM | CC(C)N1CCC(c2ccc(-c3cc4c(N5CCN(C(=O)OC6COC6)CC5)ccnc4[nH]3)nc2)CC1 [Compound 469]
20 | ≤ 100 nM | CN(C)c1nc(-c2cc3c(N4CCN(C(=O)OC5COC5)CC4)ccnc3[nH]2)cn1C [Compound 310]
21 | ≤ 100 nM | Cc1nc(-c2cc3c(N4CCN(C(=O)OC5CCC5)CC4)ccnc3[nH]2)cn1C [Compound 139]
22 | ≤ 100 nM | Cn1cc(-c2cc3c(N4CCN(C(=O)O[C@H]5C[C@H](C#N)C5)CC4)ccnc3[nH]2)cn1 [Compound 202]
23 | ≤ 100 nM | Cn1cc(-c2cc3c(N4CCN(C(=O)OC5COC5)CC4)ccnc3[nH]2)cn1 [Compound 90]
24 | 100 to 500 nM | Cc1nn(C)cc1-c1cc2c(N3CCN(C(=O)[C@H]4CC[C@H](C#N)CC4)CC3)ccnc2[nH]1 [Compound 333]
25 | 100 to 500 nM | COc1ccc(-c2cc3c(N4CCN(C(=O)C5CC5)CC4)ccnc3[nH]2)cc1 [Compound 60]
26 | 100 to 500 nM | CCc1ccc(-c2cc3c(N4CCN(C(=O)C5CC5)CC4)ccnc3[nH]2)cc1 [Compound 52]
27 | ≤ 100 nM | Cn1cc(-c2[nH]c3nccc(N4CCN(C(=O)OC5CC5)CC4)c3c2C#N)cn1 [Compound 129]
28 | 100 to 500 nM | O=C(C1CC1)N1CCN(c2ccnc3[nH]c(-c4cnn(C5CCC5)c4)cc23)CC1 [Compound 128]
29 | ≤ 100 nM | Cc1nc(-c2cc3c(N4CCN(C(=O)O[C@@H](C)CF)CC4)ccnc3[nH]2)cs1 [Compound 189]
30 | ≤ 100 nM | Cn1cnc(-c2cc3c(N4CCN(C(=O)OC5COC5)CC4)ccnc3[nH]2)c1 [Compound 89]
31 | ≤ 100 nM | CC(C)(O)c1cnc(-c2cc3c(N4CCN(C(=O)OC5COC5)CC4)ccnc3[nH]2)s1 [Compound 377]
32 | ≤ 100 nM | Cn1cnc(-c2[nH]c3nccc(N4CCN(C(=O)OC5CC(F)(F)C5)CC4)c3c2C#N)c1 [Compound 370]
33 | ≤ 100 nM | O=C(C1CC1)N1CCN(c2ccnc3[nH]c(-c4cnn(Cc5ccccc5)c4)cc23)CC1 [Compound 315]
34 | ≤ 100 nM | O=C(C1CC1)N1CCN(c2ccnc3[nH]c(-c4ccc(N5CCN(C6COC6)CC5)cc4)cc23)CC1 [Compound 452]
35 | 100 to 500 nM | CCCOC(=O)N1CCN(c2ccnc3[nH]c(-c4cnn(C)c4)cc23)CC1 [Compound 40]
36 | > 500 nM | CCCC(C)C(=O)N1CCN(c2ccnc3[nH]c(-c4cnn(C)c4)cc23)CC1 (stereo not drawn) [Compound 82]
